Where two headings read alike, the source gives them in different places.
Molecular target: interaction between GST-MAGEA11 MHD and FAM-PCF11_4 peptide (MAGE-A11:PCF11) (Homo sapiens (Human), UniProt P43364)
Assay: TR-FRET dose response competition assay for disruption of MAGE-A11:PCF11 binding
Method in brief: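 Competition TR-FRET at room temperature in 50 mM Tris pH 7.5, 20 mM MgCl2, 0.1 mg/ml BSA, 1 mM DTT: final 5 nM GST-MAGEA11 MHD, 5 nM Tb-anti-GST, 200 nM FAM-PCF11_4, 90 min. Ratio 520/490 nm converted to % inhibition; IC50 from sigmoidal fit.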

[1] = Table 8, representative compounds, read-out: TR-FRET IC50
[2] = Dose response TR-FRET screening of nine scaffold groups against MAGE-A11:PCF11, read-out: consensus IC50
[3] = Table 5, dose response TR-FRET screening of 59 quinoline compounds against MAGE-A11:PCF11, read-out: TR-FRET IC50

interaction between GST-MAGEA11 MHD and FAM-PCF11_4 peptide (MAGE-A11:PCF11), sequence (P43364 218-429): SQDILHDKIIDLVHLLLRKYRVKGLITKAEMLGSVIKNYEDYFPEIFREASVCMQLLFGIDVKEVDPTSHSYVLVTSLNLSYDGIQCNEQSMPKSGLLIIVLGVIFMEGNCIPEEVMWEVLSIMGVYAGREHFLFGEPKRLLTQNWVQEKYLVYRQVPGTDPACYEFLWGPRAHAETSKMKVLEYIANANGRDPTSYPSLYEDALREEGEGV

COc1ccc(F)cc1CNCCCNc1ccnc2cc(Cc3ccccc3)ccc12 [SJ000311309]
IC50 [1]: 18.3 µM

COc1cc(Cc2ccc3c(NCCCNCc4cccc(OC)c4O)ccnc3c2)cc(OC)c1 [SJ000311311-1]
IC50 [2]: 33.6 µM

COc1cc(Cc2ccc3c(NCCCNCc4cccc(OC)c4O)ccnc3c2)cc(OC)c1 [SJ000311311]
IC50 [1]: 33.6 µM

COc1cc(Cc2ccc3c(NCCCNCc4cccc5c4OCO5)ccnc3c2)cc(OC)c1 [SJ000311312-1]
IC50 [2]: 31.3 µM

COc1cc(Cc2ccc3c(NCCCNCc4cccc5c4OCO5)ccnc3c2)cc(OC)c1 [SJ000311312]
IC50 [1]: 31.3 µM

COc1cc(Cc2ccc3c(NCCCNCc4cc(F)ccc4OC)ccnc3c2)cc(OC)c1 [SJ000311313-1]
IC50 [2]: 33.8 µM

COc1cc(Cc2ccc3c(NCCCNCc4cc(F)ccc4OC)ccnc3c2)cc(OC)c1 [SJ000311313]
IC50 [1]: 33.8 µM

Clc1cccc(Cl)c1Cc1ccc2c(NCCCNCc3ccco3)ccnc2c1 [SJ000311314-1]
IC50 [3]: 38.4 µM

COc1cccc(CNCCCNc2ccnc3cc(Cc4c(Cl)cccc4Cl)ccc23)c1O [SJ000311315-1]
IC50 [2]: 13.8 µM

COc1cccc(CNCCCNc2ccnc3cc(Cc4c(Cl)cccc4Cl)ccc23)c1O [SJ000311315]
IC50 [1]: 13.8 µM

Clc1cccc(Cl)c1Cc1ccc2c(NCCCNCc3cccc4c3OCO4)ccnc2c1 [SJ000311316-1]
IC50 [2]: 11 µM

Clc1cccc(Cl)c1Cc1ccc2c(NCCCNCc3cccc4c3OCO4)ccnc2c1 [SJ000311316]
IC50 [1]: 11 µM

COc1ccc(F)cc1CNCCCNc1ccnc2cc(Cc3c(Cl)cccc3Cl)ccc12 [SJ000311317-1]
IC50 [2]: 12.2 µM

COc1ccc(F)cc1CNCCCNc1ccnc2cc(Cc3c(Cl)cccc3Cl)ccc12 [SJ000311317]
IC50 [1]: 12.2 µM

Cc1cc(C)cc(Cc2ccc3c(NCCCNCc4ccco4)ccnc3c2)c1 [SJ000311318-2]
IC50 [3]: > 70 µM

COc1cccc(CNCCCNc2ccnc3cc(Cc4cc(C)cc(C)c4)ccc23)c1O [SJ000311319-1]
IC50 [2]: 23.6 µM

COc1cccc(CNCCCNc2ccnc3cc(Cc4cc(C)cc(C)c4)ccc23)c1O [SJ000311319]
IC50 [1]: 23.6 µM

Cc1cc(C)cc(Cc2ccc3c(NCCCNCc4cccc5c4OCO5)ccnc3c2)c1 [SJ000311320-1]
IC50 [2]: 16.3 µM

Cc1cc(C)cc(Cc2ccc3c(NCCCNCc4cccc5c4OCO5)ccnc3c2)c1 [SJ000311320]
IC50 [1]: 16.3 µM

COc1ccc(F)cc1CNCCCNc1ccnc2cc(Cc3cc(C)cc(C)c3)ccc12 [SJ000311321-1]
IC50 [2]: 9.04 µM

COc1ccc(F)cc1CNCCCNc1ccnc2cc(Cc3cc(C)cc(C)c3)ccc12 [SJ000311321]
IC50 [1]: 9.04 µM

COc1cccc(CNCCCNc2ccnc3cc(Cc4ccc(F)cc4Cl)ccc23)c1O [SJ000311323-1]
IC50 [2]: 17.6 µM

COc1cccc(CNCCCNc2ccnc3cc(Cc4ccc(F)cc4Cl)ccc23)c1O [SJ000311323]
IC50 [1]: 17.6 µM

Fc1ccc(Cc2ccc3c(NCCCNCc4cccc5c4OCO5)ccnc3c2)c(Cl)c1 [SJ000311324-1]
IC50 [2]: 20.6 µM

Fc1ccc(Cc2ccc3c(NCCCNCc4cccc5c4OCO5)ccnc3c2)c(Cl)c1 [SJ000311324]
IC50 [1]: 20.6 µM

COc1ccc(F)cc1CNCCCNc1ccnc2cc(Cc3ccc(F)cc3Cl)ccc12 [SJ000311325-1]
IC50 [2]: 17.6 µM

COc1ccc(F)cc1CNCCCNc1ccnc2cc(Cc3ccc(F)cc3Cl)ccc12 [SJ000311325]
IC50 [1]: 17.6 µM

COc1cccc(F)c1CNCCCNc1ccnc2cc(Cl)ccc12 [SJ000311328-2]
IC50 [2]: 69.9 µM

COc1cccc(F)c1CNCCCNc1ccnc2cc(Cl)ccc12 [SJ000311328]
IC50 [1]: 69.9 µM

O=C1C(Cl)=C(NCCN2CCOCC2)C(=O)c2ncccc21 [SJ000312204-6]
IC50 [2]: 2.25 µM

CCc1c2c(nc3ccc(OC(=O)N4CCC(N5CCCCC5)CC4)cc13)-c1cc3c(c(=O)n1C2)COC(=O)[C@]3(O)CC [SJ000312345]
IC50 [1]: > 58.7 µM

Cc1ccccc1-c1nc(S(=O)(=O)c2ccc(F)cc2)c(N2CC(C)OC(C)C2)o1 (centres unmarked) [SJ000329031-1]
IC50 [2]: 69.9 µM

Cc1ccc(S(=O)(=O)c2nc(-c3ccccc3C)oc2N2CC(C)OC(C)C2)cc1 (centres unmarked) [SJ000329041-1]
IC50 [2]: 11.8 µM

Cc1ccccc1-c1nc(S(=O)(=O)c2ccc(Cl)cc2)c(N2CC(C)OC(C)C2)o1 (centres unmarked) [SJ000329051-1]
IC50 [2]: 69.9 µM

Cc1ccc(S(=O)(=O)c2nc(-c3ccccc3Cl)oc2N2CC(C)OC(C)C2)cc1 (centres unmarked) [SJ000329066-1]
IC50 [2]: 13 µM

CC1CN(c2oc(-c3ccccc3F)nc2S(=O)(=O)c2ccc(F)cc2)CC(C)O1 (centres unmarked) [SJ000329067-1]
IC50 [2]: 27.3 µM

Oc1c(F)cc(F)cc1CN(CCCCNc1ccnc2cc(Cl)ccc12)Cc1ccccc1 [SJ000357506-2]
IC50 [3]: > 70 µM

CC(C)(C)CCN(CCCCNc1ccnc2cc(Cl)ccc12)Cc1ccccc1 [SJ000357537-2]
IC50 [3]: > 70 µM

Clc1ccc2c(NCCCNCc3ccccc3)ccnc2c1 [SJ000361100-1]
IC50 [2]: 69.9 µM

Clc1ccc2c(NCCCNCc3ccccc3)ccnc2c1 [SJ000361100]
IC50 [1]: 69.9 µM

FC(F)(F)c1ccc2c(NCCCNCc3ccc[nH]3)ccnc2c1 [SJ000361105-1]
IC50 [3]: 33 µM

FC(F)(F)c1ccc2c(NCCCNCc3ccc4c(c3)OCO4)ccnc2c1 [SJ000361106-1]
IC50 [2]: 69.9 µM

FC(F)(F)c1ccc2c(NCCCNCc3ccccc3)ccnc2c1 [SJ000361107-1]
IC50 [2]: 69.9 µM

FC(F)(F)c1ccc2c(NCCCNCc3ccccc3)ccnc2c1 [SJ000361107]
IC50 [1]: 69.9 µM

Clc1ccc2c(NCCCNCc3c4ccccc4cc4ccccc34)ccnc2c1 [SJ000361122-2]
IC50 [2]: 69.9 µM

Clc1ccc2c(NCCCNCc3c4ccccc4cc4ccccc34)ccnc2c1 [SJ000361122]
IC50 [1]: 69.9 µM

CCCCCCNCCCNc1ccnc2cc(C(F)(F)F)ccc12 [SJ000361124-1]
IC50 [3]: 57.6 µM

FC(F)(F)c1ccc2c(NCCCNCc3c4ccccc4cc4ccccc34)ccnc2c1 [SJ000361126-1]
IC50 [2]: 69.9 µM

FC(F)(F)c1ccc2c(NCCCNCc3c4ccccc4cc4ccccc34)ccnc2c1 [SJ000361126]
IC50 [1]: 69.9 µM

C=C1C=C(C)C=C(C)C(CN(CCCNc2ccnc3cc(Cl)ccc23)Cc2ccccc2)=C1 [SJ000361169-2]
IC50 [3]: > 70 µM

Clc1ccc2c(NCCCCN(Cc3ccccc3)CC3CCCCC3)ccnc2c1 [SJ000361194-2]
IC50 [3]: > 70 µM

Clc1ccc(CN(CCCCNc2ccnc3cc(Cl)ccc23)Cc2ccccc2)c(Cl)c1 [SJ000361207-2]
IC50 [3]: > 70 µM

CCC(C)CN(CCCCNc1ccnc2cc(Cl)ccc12)Cc1ccccc1 (centres unmarked) [SJ000361208-2]
IC50 [3]: > 70 µM

Cc1ccc(C)c(CN(CCCCNc2ccnc3cc(Cl)ccc23)Cc2ccccc2)c1 [SJ000361209-2]
IC50 [3]: > 70 µM

CCCN(CCNc1ccnc2cc(C(F)(F)F)ccc12)Cc1ccc[nH]1 [SJ000361255-1]
IC50 [3]: > 70 µM

CCCN(CCCNc1ccnc2cc(C(F)(F)F)ccc12)CC1CC1 [SJ000361266-1]
IC50 [3]: > 70 µM

CCCN(CCCNc1ccnc2cc(C(F)(F)F)ccc12)CC1CCCCC1 [SJ000361268-1]
IC50 [3]: > 70 µM

CCCN(CCCNc1ccnc2cc(C(F)(F)F)ccc12)CC(CC)CC [SJ000361269-1]
IC50 [3]: > 70 µM

CCCCCN(CCC)CCCNc1ccnc2cc(C(F)(F)F)ccc12 [SJ000361271-1]
IC50 [3]: > 70 µM

COc1ccc(C2=C(c3ccc([N+](=O)[O-])cc3)C(=O)OC2)cc1 [SJ000367280-1]
IC50 [2]: 69.9 µM

CC(C)(C)c1ccc(C2=C(c3ccc([N+](=O)[O-])cc3)C(=O)OC2)cc1 [SJ000368097-1]
IC50 [2]: 69.9 µM

CCCc1ccc(C2=C(c3ccc([N+](=O)[O-])cc3)C(=O)OC2)cc1 [SJ000368117-1]
IC50 [2]: 69.9 µM

CCc1ccc(C2=C(c3ccc([N+](=O)[O-])cc3)C(=O)OC2)cc1 [SJ000368127-1]
IC50 [2]: 69.9 µM

O=C1OCC(c2ccc(OC(F)F)cc2)=C1c1ccc([N+](=O)[O-])cc1 [SJ000368145-1]
IC50 [2]: 40.8 µM

O=C1OCC(c2ccc(F)cc2)=C1c1ccc([N+](=O)[O-])cc1 [SJ000368155-1]
IC50 [2]: 69.9 µM

CCC(C)c1ccc(C2=C(c3ccc([N+](=O)[O-])cc3)C(=O)OC2)cc1 (centres unmarked) [SJ000368165-1]
IC50 [2]: 69.9 µM

CCCn1c(-c2ccc(Cl)cc2)nc2c1c(=O)[nH]c(=O)n2Cc1ccccc1 [SJ000375541-1]
IC50 [2]: 69.9 µM

CCCn1c(-c2ccc(C(C)(C)C)cc2)nc2c1c(=O)[nH]c(=O)n2Cc1ccccc1 [SJ000375920-1]
IC50 [2]: 69.9 µM

CCCn1c(-c2cccc([N+](=O)[O-])c2)nc2c1c(=O)[nH]c(=O)n2Cc1ccccc1 [SJ000376601-1]
IC50 [2]: 69.9 µM

CCCn1c(-c2ccc(OC(F)F)cc2)nc2c1c(=O)[nH]c(=O)n2Cc1ccccc1 [SJ000376621-1]
IC50 [2]: 69.9 µM

CCCn1c(=O)[nH]c(=O)c2c1nc(-c1ccc(OC(F)F)cc1)n2CCN1CCOCC1 [SJ000377779-1]
IC50 [2]: 69.9 µM

CCCn1c(=O)[nH]c(=O)c2c1nc(-c1ccc(C(C)(C)C)cc1)n2CCN1CCOCC1 [SJ000377955-1]
IC50 [2]: 69.9 µM

CCCCn1c(=O)[nH]c(=O)c2c1nc(-c1ccc(CC)c([N+](=O)[O-])c1)n2C [SJ000378868-1]
IC50 [2]: 69.9 µM

C=CCOc1ccc(-c2nc3c(c(=O)[nH]c(=O)n3CCC)n2CCCC)cc1 [SJ000378878-1]
IC50 [2]: 69.9 µM

C=CCOc1ccc(-c2nc3c(c(=O)[nH]c(=O)n3Cc3ccccc3)n2CCCOC)cc1 [SJ000378880-1]
IC50 [2]: 69.9 µM

CCCn1c(=O)[nH]c(=O)c2c1nc(-c1ccc(OC)c(Br)c1)n2CCOC [SJ000378893-1]
IC50 [2]: 69.9 µM

CCCCCn1c(-c2ccc(F)c(Br)c2)nc2c1c(=O)[nH]c(=O)n2CCCC [SJ000378900-1]
IC50 [2]: 2.64 µM

CCCCn1c(=O)[nH]c(=O)c2c1nc(-c1ccc(OCC(C)C)c(OCC)c1)n2CC [SJ000378903-1]
IC50 [2]: 69.9 µM

CCCCn1c(-c2ccc(OCCC)c(OCC)c2)nc2c1c(=O)[nH]c(=O)n2CCC [SJ000378906-1]
IC50 [2]: 69.9 µM

CCCCn1c(-c2ccc(Cl)cc2)nc2c1c(=O)[nH]c(=O)n2Cc1ccccc1 [SJ000378907-1]
IC50 [2]: 69.9 µM

— patent US20240246941A1, “SUBSTITUTED 4-(3-AMINOPROP-1-YL)AMINOQUINOLINE ANALOGS AS MODULATORS OF MELANOMA-ASSOCIATED ANTIGEN 11 UBIQUITIN LIGASE” (ST. JUDE CHILDREN'S RESEARCH HOSPITAL, INC., priority 2020, published 2024)
